Data: ChEMBL document CHEMBL4196128 (ACS Med Chem Lett, 2018)

How the values were obtained:
[1] = biological target: Mitogen-activated protein kinase 1 (Homo sapiens, UniProt P28482); test: Inhibition of ERK2 (unknown origin) using peptide substrate measured after 45 mins by IMAP assay
COLO 205 = test: Antiproliferative activity against human COLO205 cells harboring BRAF V600E/D mutant measured after 4 days; type: functional, cell-based; conditions: COLO 205, 96 h
hERG (KCNH2) [2] = biological target: T1, hERG (KCNH2) (Homo sapiens, UniProt Q12809); test: Inhibition of human ERG at 1 uM by IonWork assay relative to control
hERG (KCNH2) [3] = biological target: T1, hERG (KCNH2); test: Inhibition of human ERG at 10 uM by IonWork assay relative to control
[4] = biological target: Mitogen-activated protein kinase 3 (Homo sapiens, UniProt P27361); test: Inhibition of ERK1 (unknown origin) using peptide substrate measured after 45 mins by IMAP assay
HT-29 = test: Antiproliferative activity against human HT-29 cells harboring BRAF V600E/D mutant measured after 4 days; type: functional, cell-based; conditions: HT-29, 96 h
hERG (KCNH2) [5] = biological target: T1, hERG (KCNH2); test: Inhibition of human ERG at 1.5 mg/ml by binding assay relative to control; design: dose or concentration left out as unconfirmed
hERG (KCNH2) [6] = biological target: T1, hERG (KCNH2); test: Inhibition of human ERG at 5 mg/ml by binding assay relative to control; design: dose or concentration left out as unconfirmed
[7] = Clearance in human hepatocytes assessed per million cells; type: ADME, cell-based, Hepatocyte
[8] = Clearance in dog hepatocytes assessed per million cells; type: ADME, cell-based, Canis lupus familiaris, Hepatocyte
[9] = AUC in rat at 10 mg/kg; type: ADME, organism-based; conditions: in vivo
[10] = AUC in dog at 10 mg/kg; type: ADME, organism-based, Canis lupus familiaris; conditions: in vivo
Cytochrome P450 3A4 = Cytochrome P450 3A4 (Homo sapiens, UniProt P08684); test: Inhibition of CYP3A4 (unknown origin) preincubated followed by substrate addition; type: ADME
[11] = Drug metabolism in bile duct-cannulated rat bile assessed as oxidative dealkylation by measuring loss of isopropyl group at 10 mg/kg, iv by LC/ESI-MS/MS analysis; type: ADME, organism-based; conditions: in vivo
[12] = Drug metabolism in bile duct-cannulated rat bile assessed as oxidative dealkylation by measuring amide cleavage at 10 mg/kg, iv by LC/ESI-MS/MS analysis; type: ADME, organism-based; conditions: in vivo
[13] = Drug metabolism in bile duct-cannulated rat bile assessed as oxidation at 10 mg/kg, iv by LC/ESI-MS/MS analysis; type: ADME, organism-based; conditions: in vivo
[14] = Drug metabolism in bile duct-cannulated rat bile assessed as conjugation at 10 mg/kg, iv by LC/ESI-MS/MS analysis; type: ADME, organism-based; conditions: in vivo
[15] = Drug metabolism in bile duct-cannulated rat urine assessed as oxidative dealkylation by measuring loss of isopropyl group at 10 mg/kg, iv by LC/ESI-MS/MS analysis; type: ADME, organism-based; conditions: in vivo
[16] = Drug metabolism in bile duct-cannulated rat urine assessed as oxidative dealkylation by measuring amide cleavage at 10 mg/kg, iv by LC/ESI-MS/MS analysis; type: ADME, organism-based; conditions: in vivo
[17] = Drug metabolism in bile duct-cannulated rat urine assessed as oxidation at 10 mg/kg, iv by LC/ESI-MS/MS analysis; type: ADME, organism-based; conditions: in vivo
[18] = Drug metabolism in bile duct-cannulated rat urine assessed as conjugation at 10 mg/kg, iv by LC/ESI-MS/MS analysis; type: ADME, organism-based; conditions: in vivo
[19] = Drug metabolism in bile duct-cannulated rat plasma assessed as oxidative dealkylation by measuring loss of isopropyl group at 10 mg/kg, iv by LC/ESI-MS/MS analysis; type: ADME, organism-based; conditions: in vivo
[20] = Drug metabolism in bile duct-cannulated rat plasma assessed as oxidative dealkylation by measuring amide cleavage at 10 mg/kg, iv by LC/ESI-MS/MS analysis; type: ADME, organism-based; conditions: in vivo
[21] = Drug metabolism in bile duct-cannulated rat plasma assessed as oxidation at 10 mg/kg, iv by LC/ESI-MS/MS analysis; type: ADME, organism-based; conditions: in vivo
[22] = Drug metabolism in bile duct-cannulated rat plasma assessed as conjugation at 10 mg/kg, iv by LC/ESI-MS/MS analysis; type: ADME, organism-based; conditions: in vivo
[23] = Drug metabolism in bile duct-cannulated rat urine assessed as glutathione conjugation at 10 mg/kg, iv by LC/ESI-MS/MS analysis; type: ADME, organism-based; conditions: in vivo
[24] = Drug metabolism in bile duct-cannulated rat plasma assessed as glutathione conjugation at 10 mg/kg, iv by LC/ESI-MS/MS analysis; type: ADME, organism-based; conditions: in vivo
[25] = Plasma clearance in rat; type: ADME, organism-based
[26] = Half life in rat; type: ADME, organism-based; conditions: in vivo
[27] = Mean residence time in rat; type: ADME, organism-based; conditions: in vivo

Mitogen-activated protein kinase 1, sequence (P28482 whole entry): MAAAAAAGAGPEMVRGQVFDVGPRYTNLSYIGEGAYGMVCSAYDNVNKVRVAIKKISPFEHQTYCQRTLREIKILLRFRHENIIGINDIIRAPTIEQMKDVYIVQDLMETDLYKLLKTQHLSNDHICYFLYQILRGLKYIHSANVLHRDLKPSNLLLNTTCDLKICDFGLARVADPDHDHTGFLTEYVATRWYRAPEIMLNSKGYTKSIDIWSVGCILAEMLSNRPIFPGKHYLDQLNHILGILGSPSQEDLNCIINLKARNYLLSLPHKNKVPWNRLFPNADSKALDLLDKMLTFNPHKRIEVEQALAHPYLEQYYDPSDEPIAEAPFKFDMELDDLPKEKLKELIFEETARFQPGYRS
Mitogen-activated protein kinase 3, sequence (P27361 whole entry): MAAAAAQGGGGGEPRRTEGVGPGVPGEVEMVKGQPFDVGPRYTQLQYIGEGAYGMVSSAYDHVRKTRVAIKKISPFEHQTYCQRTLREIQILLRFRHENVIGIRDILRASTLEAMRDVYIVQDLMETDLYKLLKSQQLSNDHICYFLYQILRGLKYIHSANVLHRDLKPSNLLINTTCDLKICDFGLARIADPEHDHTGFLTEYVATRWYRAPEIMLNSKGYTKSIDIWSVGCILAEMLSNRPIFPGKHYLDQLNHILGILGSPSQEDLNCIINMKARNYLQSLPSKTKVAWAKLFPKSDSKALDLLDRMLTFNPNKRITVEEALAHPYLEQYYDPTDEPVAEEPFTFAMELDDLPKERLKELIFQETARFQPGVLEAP
T1 sequence (Q12809 whole entry): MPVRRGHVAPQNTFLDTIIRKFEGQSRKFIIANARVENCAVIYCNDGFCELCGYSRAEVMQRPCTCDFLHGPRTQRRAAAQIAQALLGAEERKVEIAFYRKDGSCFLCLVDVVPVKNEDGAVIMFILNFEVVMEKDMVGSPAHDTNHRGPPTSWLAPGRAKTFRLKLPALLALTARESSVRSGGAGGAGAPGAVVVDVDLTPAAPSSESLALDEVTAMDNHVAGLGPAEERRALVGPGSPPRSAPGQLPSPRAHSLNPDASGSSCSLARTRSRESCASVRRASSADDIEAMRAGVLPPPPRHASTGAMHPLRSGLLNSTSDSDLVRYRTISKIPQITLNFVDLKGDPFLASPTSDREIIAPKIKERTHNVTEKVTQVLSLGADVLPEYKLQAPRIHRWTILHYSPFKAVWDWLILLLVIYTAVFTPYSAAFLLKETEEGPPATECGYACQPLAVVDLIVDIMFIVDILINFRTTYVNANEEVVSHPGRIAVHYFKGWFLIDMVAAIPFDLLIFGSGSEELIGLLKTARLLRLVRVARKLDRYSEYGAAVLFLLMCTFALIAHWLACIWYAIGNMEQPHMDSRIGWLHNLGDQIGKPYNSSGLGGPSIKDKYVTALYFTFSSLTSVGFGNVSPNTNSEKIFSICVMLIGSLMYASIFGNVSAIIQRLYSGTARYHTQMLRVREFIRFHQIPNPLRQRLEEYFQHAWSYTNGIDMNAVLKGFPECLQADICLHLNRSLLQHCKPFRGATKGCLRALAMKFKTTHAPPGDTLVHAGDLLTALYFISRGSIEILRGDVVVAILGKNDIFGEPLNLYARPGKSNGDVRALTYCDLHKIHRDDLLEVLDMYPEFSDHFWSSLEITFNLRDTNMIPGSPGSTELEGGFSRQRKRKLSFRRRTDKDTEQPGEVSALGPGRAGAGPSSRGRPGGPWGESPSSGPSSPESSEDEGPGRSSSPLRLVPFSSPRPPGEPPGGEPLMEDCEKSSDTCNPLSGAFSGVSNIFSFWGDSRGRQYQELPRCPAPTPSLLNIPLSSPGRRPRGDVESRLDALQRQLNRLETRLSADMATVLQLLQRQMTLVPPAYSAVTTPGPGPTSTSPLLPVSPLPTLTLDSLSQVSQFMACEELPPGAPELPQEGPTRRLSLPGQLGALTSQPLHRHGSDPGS
Cytochrome P450 3A4, sequence (P08684 whole entry): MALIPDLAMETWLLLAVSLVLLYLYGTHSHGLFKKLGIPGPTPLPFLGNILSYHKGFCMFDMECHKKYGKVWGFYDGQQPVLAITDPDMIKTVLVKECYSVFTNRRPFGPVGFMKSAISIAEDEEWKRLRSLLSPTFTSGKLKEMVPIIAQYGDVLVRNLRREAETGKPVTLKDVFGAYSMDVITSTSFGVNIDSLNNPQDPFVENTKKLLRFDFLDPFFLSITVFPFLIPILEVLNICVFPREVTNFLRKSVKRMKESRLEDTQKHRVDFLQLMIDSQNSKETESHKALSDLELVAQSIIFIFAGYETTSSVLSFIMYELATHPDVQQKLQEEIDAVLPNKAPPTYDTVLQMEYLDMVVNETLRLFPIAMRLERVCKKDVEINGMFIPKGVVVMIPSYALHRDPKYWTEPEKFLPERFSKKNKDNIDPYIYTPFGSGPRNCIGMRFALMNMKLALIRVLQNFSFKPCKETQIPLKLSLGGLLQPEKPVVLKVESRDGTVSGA

Structure (SMILES) | IC50 [1] [nM] | IC50 (COLO 205) [nM] | IC50 [4] [nM] | IC50 (HT-29) [nM] | inhibition (hERG (KCNH2) [5]) [%] | inhibition (hERG (KCNH2) [6]) [%] | further results
CS[C@]1(C(=O)Nc2ccc3[nH]nc(-c4ccc(OC(C)C)nc4)c3c2)CCN(CC(=O)N2CC=C(c3ccc(-c4ncn(C)n4)cc3)CC2)C1 | 729 | > 1000 | – | – | – | – | inhibition at 1 µM (hERG (KCNH2) [2]): 6%; inhibition at 10 µM (hERG (KCNH2) [3]): 10%
CS[C@@]1(C(=O)Nc2ccc3[nH]nc(-c4ccc(F)cc4)c3c2)CCN(CC(=O)N2CC=C(c3ccc(-c4ncccn4)cc3F)CC2)C1 | 25 | 83 | 135 | 209 | 11 | 32 | –
CS[C@@]1(C(=O)Nc2ccc3[nH]nc(-c4ccc(OC(C)C)nc4)c3c2)CCN(CC(=O)N2CC=C(c3ccc(-c4ncccn4)cc3)CC2)C1 | 13 | 57 | 93 | 79 | 25 | 37 | –
CCNc1nnc(-c2ccc(C3=CCN(C(=O)CN4CC[C@@](SC)(C(=O)Nc5ccc6[nH]nc(-c7ccc(F)cc7)c6c5)C4)CC3)cc2)o1 | 5 | 22 | 17 | 49 | -3 | 6 | –
CCNc1ncc(-c2ccc(C3=CCN(C(=O)CN4CC[C@@](SC)(C(=O)Nc5ccc6[nH]nc(-c7ccnc(C)c7)c6c5)C4)CC3)cc2)s1 | 6 | 30 | 34 | 131 | -7 | -3 | –
CS[C@@]1(C(=O)Nc2ccc3[nH]nc(-c4ccc(F)cc4)c3c2)CCN(CC(=O)N2CC=C(c3ccc(-c4ncccn4)cc3)CC2)C1 | – | 45 | 41 | 118 | – | – | CLH [7]: 18 µL/min; CLH [8]: 7 µL/min; AUC [9]: 25.9 to 26 µM·h; AUC [10]: 17 µM·h
CS[C@@]1(C(=O)Nc2ccc3[nH]nc(-c4ccc5c(c4)OCO5)c3c2)CCN(CC(=O)N2CC=C(c3ccc(-c4ncccn4)cc3)CC2)C1 | 13 | 29 | 45 | 77 | 19 | 16 | IC50 (Cytochrome P450 3A4): 300 nM; AUC [9]: 106 µM·h
CC(C)Oc1ccc(-c2n[nH]c3ccc(NC(=O)[C@]4(S(C)(=O)=O)CCN(CC(=O)N5CC=C(c6ccc(-c7ncn(C)n7)cc6)CC5)C4)cc23)cn1 | 29 | 86 | 228 | 243 | – | – | inhibition at 1 µM (hERG (KCNH2) [2]): 4%; inhibition at 10 µM (hERG (KCNH2) [3]): 5%
CS[C@@]1(C(=O)Nc2ccc3[nH]nc(-c4ccc(F)cc4)c3c2)CCN(CC(=O)N2CCN(c3ccc(-c4ncccn4)cc3F)CC2)C1 | 114 | – | 663 | – | – | – | –
COc1cc(-c2n[nH]c3ccc(NC(=O)[C@]4(SC)CCN(CC(=O)N5CC=C(c6ccc(-c7ncn(C)n7)cc6)CC5)C4)cc23)ccn1 | 1.7 | 10 | 7.9 | 80 | – | – | inhibition at 1 µM (hERG (KCNH2) [2]): 0.8%; inhibition at 10 µM (hERG (KCNH2) [3]): 7.2%
COc1cc(-c2n[nH]c3ccc(NC(=O)[C@]4(SC)CCN(CC(=O)N5CC=C(c6ccc(-c7ncccn7)cc6)CC5)C4)cc23)ccn1 | 5 | 34 | 19 | 60 | 2 | 15 | inhibition at 1 µM (hERG (KCNH2) [2]): 7%; inhibition at 10 µM (hERG (KCNH2) [3]): 19%
CS[C@@]1(C(=O)Nc2ccc3[nH]nc(-c4ccc(F)cc4)c3c2)CCN(CC(=O)N2CCC(c3ccc(-c4ncccn4)cc3)CC2)C1 | 23 | 76 | 43 | 245 | 22 | 12 | –
CS[C@@]1(C(=O)Nc2ccc3[nH]nc(-c4ccnc(OC(C)C)c4)c3c2)CCN(CC(=O)N2CC=C(c3ccc(-c4ncn(C)n4)cc3)CC2)C1 | 27 | 41 | 74 | 99 | 3 | 10 | –
CS[C@@]1(C(=O)Nc2ccc3[nH]nc(-c4ccc(F)cc4)c3c2)CCN(CC(=O)N2CCN(c3ccc(-c4ncccn4)cc3)CC2)C1 | – | 47 | 25 | 87 | 3 | 47 | –
CS[C@@]1(C(=O)Nc2ccc3[nH]nc(-c4ccc(F)cc4)c3c2)CCN(CC(=O)N2CC=C(c3nc(-c4ncccn4)cs3)CC2)C1 | 291 | – | 952 | – | 6 | 19 | –
CS[C@@]1(C(=O)Nc2ccc3[nH]nc(-c4ccc(F)cc4)c3c2)CCN(CC(=O)N2CC=C(c3ncc(-c4ncccn4)s3)CC2)C1 | 36 | > 111 | 207 | 543 | -5 | 10 | –
[3H]c1cc(OC(C)C)nc([3H])c1-c1n[nH]c2ccc(NC(=O)[C@]3(SC)CCN(CC(=O)N4CC=C(c5ccc(-c6ncn(C)n6)cc5)CC4)C3)cc12 | – | – | – | – | – | – | Drug metabolism [11]: Metabolite_Detected; Drug metabolism [12]: Metabolite_Detected; Drug metabolism [13]: Metabolite_Detected; Drug metabolism [14]: Metabolite_Detected; Drug metabolism [15]: Metabolite_Detected; Drug metabolism [16]: Metabolite_Detected; Drug metabolism [17]: Metabolite_Detected; Drug metabolism [18]: Metabolite_Detected; Drug metabolism [19]: Metabolite_Detected; Drug metabolism [20]: Metabolite_Detected; Drug metabolism [21]: Metabolite_Detected; Drug metabolism [22]: Metabolite_Detected; Drug metabolism [23]: Metabolite_Notdetected; Drug metabolism [24]: Metabolite_Notdetected
O=C(Nc1ccc2[nH]nc(-c3ccncc3)c2c1)[C@@H]1CCN(CC(=O)N2CCN(c3ccc(-c4ncccn4)cc3)CC2)C1 | – | 16 | 8 | 59 | – | – | clearance [25]: 122 mL/min/kg; half-life [26]: 1.5 h; MRT [27]: 1.6 h
